Measured values as given in patent US4139628A, “Amino-spiro[oxa(or thia)cycloalkane-penam]-carboxylic acid derivatives” (U C B, Societe Anonyme, priority 1977, dated 1979).

How the values were obtained:
[1] = system: Escherichia coli K 12-44 S; format: cell-based; settings: E.COLI K 12-44S; relative to ampicillin = 1
Experimental: It is very sensitive to penicillins due to hyperpermeability.
(§1) The products to be tested are introduced in increasing concentrations into a gelose culture medium in Petri dishes. A multiple inoculator is used to deposit simultaneously drops (10 microliters) of inoculum (suspension of about 10^5 bacteria per ml) onto the surface of the medium. After incubation at 37° C. for 24 hours, the growth of the bacteria is observed. By definition, the MIC is expressed as the minimum concentration of the tested compounds which inhibits the multiplication of the bacteria. In the results which follow, however, the MIC is given as being equal to 1 for the reference compounds and the activity figures given for the tested compounds of general formula (I) are, therefore, relative values. This presentation of the results is more correct and the most reproducible, because, for one and the same bacterial strain, different MIC values can be observed if they are measured at different times. This is bound up with the "seasonal" variations in the strains and their nutrient medium.

beta-lactamase P 99 = target: T1, beta-lactamase P 99 (Enterobacter cloacae, UniProt P05364); assay: hydrolysis kinetics in the presence of beta-lactamase (residual activity); format: biochemical, Gram-negative bacteria; settings: as compared with ampicillin
T1 construct: source not detailed
T1 sequence (P05364 21-381): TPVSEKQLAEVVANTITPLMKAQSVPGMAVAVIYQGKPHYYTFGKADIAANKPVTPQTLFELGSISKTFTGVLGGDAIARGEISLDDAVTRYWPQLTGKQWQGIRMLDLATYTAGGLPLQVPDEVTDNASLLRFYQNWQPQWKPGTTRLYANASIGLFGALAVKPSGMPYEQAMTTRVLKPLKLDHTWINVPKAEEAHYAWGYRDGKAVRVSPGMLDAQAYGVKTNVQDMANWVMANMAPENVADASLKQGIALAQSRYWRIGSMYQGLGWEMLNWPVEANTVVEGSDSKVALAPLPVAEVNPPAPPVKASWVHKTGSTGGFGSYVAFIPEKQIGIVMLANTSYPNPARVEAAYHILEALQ

[2] = system: Escherichia coli B AMPI-R; assay: minimum inhibitory concentration (MIC), gelose culture medium in Petri dishes; format: cell-based; settings: relative MIC (ampicillin = 1) on E. COLI B versus its beta-lactamase hyperproducer mutant
Experimental: This is a mutant of the preceding strain, which we have produced.
as §1

beta-lactamase TEM = assay: hydrolysis kinetics in the presence of beta-lactamase (residual activity); format: biochemical, Gram-negative bacteria; settings: after incubation for 6 minutes

| SMILES | MIC, relative value [1] | resistance to beta-lactamase, in words (beta-lactamase P 99) | difference between the activity on E. COLI B and on E. COLI B Ampi-R (factor) [2] | Remaining activity as percentage (beta-lactamase TEM) [%] |
| --- | --- | --- | --- | --- |
| NC(C(=O)NC1C(=O)N2C1SC1(CCSCC1)C2C(=O)O)c1ccccc1 (stereo not drawn) [Compound F, 6-(2"-amino-2"-phenylacetamido)-2',3',5',6'-tetrahydro-spiro[penam-2,4'-[4H]thiopyran]-3-carboxylic acid] | 15 | increased resistance |  |  |
| N[C@@H](C(=O)NC1C(=O)N2C1SC1(CCOCC1)C2C(=O)O)c1ccccc1 (single isomer, unassigned) [Compound B, 6-(2"-amino-2"-phenylacetamido)-2',3',5',6'-tetrahydro-spiro[penam-2,4'-[4H]pyran]-3-carboxylic acid] | 1.9 |  | 3.5 | 87 |
| NC(C(=O)NC1C(=O)N2C1SC1(CC[S+]([O-])CC1)C2C(=O)O)c1ccccc1 (stereo not drawn) [Compound J, 6-(2"-amino-2"-phenylacetamido)-2',3',5',6'-tetrahydro-spiro[penam-2,4'-[4H]thiopyran]-3-carboxylic acid 1'-oxide] |  | No change in behavior |  |  |
